# Results: patent US7351581B2, “In vivo method for producing female offsprings in bovines” (priority 2000, dated 2008)
# Key:
# buffaloes = assay: Example 3: vinegar, dilute acetic acid or acidified sodium acetate, no control group, buffaloes
# Experimental: (§1) The first study was conducted in a population primarily comprising cows and buffaloes. […] Equal number of animals were used in the standard/control group for comparison. The animals were in the study group were allowed to undergo one insemination. Thereafter, i.e. within 35-50 minutes, the material prepared according to the process described in Example 1 was administered to the animals in the study group. The animals in the control/standard group were not subject to administration of any material. Mating or insemination was not controlled. All the animals were allowed to move freely in their usual environment and were kept on normal diet. Their behavior and temperature/temperament especially of the study group. was monitored.
# (§2) These animals were administered vinegar, dilute acetic acid, and sodium acetate solution in acidic pH separately.
# cows = assay: Example 3: vinegar, dilute acetic acid or acidified sodium acetate, no control group, cows
# Experimental: as §1, §2
# cows and buffaloes = assay: Example 3: totals for cows and buffaloes together
# Experimental: as §1, §2
SMILES,Animals not conceived (buffaloes),No. of Miscarriages (buffaloes),OFFSPRING Females (buffaloes),OFFSPRING Males (buffaloes),"OFFSPRING Females (cows; cows, no control group)","OFFSPRING Males (cows; cows, no control group)","Animals not conceived (cows; female, cows, in vivo)",No. of Miscarriages (cows; in vivo),female offsprings delivered (cows and buffaloes; cows and buffaloes together),share of female offsprings (cows and buffaloes; cows and buffaloes together),"animals that did not conceive (cows and buffaloes; female, cows and buffaloes, in vivo)",animals that reported miscarriage (cows and buffaloes; in vivo),"Animals not conceived (cows; cows, no control group)","No. of Miscarriages (cows; cows, no control group)",animals that did not conceive (cows and buffaloes; cows and buffaloes together)
"CC(=O)O [Acetic Acid dilute, acetic acid]",3,Nil,11,Nil,6,Nil,2,Nil,17,100%,5,no animals reported miscarriage,,,
"CC(=O)[O-].[Na+] [Sodium Acetate Acidified, sodium acetate]",2,Nil,8,Nil,4,Nil,,,12,100%,,,1,Nil,3
